The results in this text go back to US8110566B2, “Therapeutic agents 713” (AstraZeneca AB, priority 2009, dated 2012).

The IC50 is the concentration needed to halve the response being measured. A high value points to a need for much substance.

Assay [1] addresses T1, human histamine H3 receptors (Homo sapiens, UniProt Q9Y5N1).
T1 construct: human histamine H3 receptors (full-length H3, the most prevalent brain isoform 445); host or cells: CHO-K1, stably expressing (membranes)
Kind of assay: Histamine H3 SPA with [3H]-N-α-methylhistamine and/or GTPγS binding assay. For orientation: GTPγS resists hydrolysis and so accumulates on activated G proteins.

Assay [2] addresses T2, human Melanin Concentrating Hormone receptor 1 (MCHR1) (Homo sapiens, UniProt Q99705).
T2 construct: host or cells: CHO-K1 (membranes)
The assay can be described thus: MCHr1 IC50 (MCH binding assay / MCHR1 receptor activation assay).

The structures appear in SMILES notation.

T2 sequence (Q99705 whole entry): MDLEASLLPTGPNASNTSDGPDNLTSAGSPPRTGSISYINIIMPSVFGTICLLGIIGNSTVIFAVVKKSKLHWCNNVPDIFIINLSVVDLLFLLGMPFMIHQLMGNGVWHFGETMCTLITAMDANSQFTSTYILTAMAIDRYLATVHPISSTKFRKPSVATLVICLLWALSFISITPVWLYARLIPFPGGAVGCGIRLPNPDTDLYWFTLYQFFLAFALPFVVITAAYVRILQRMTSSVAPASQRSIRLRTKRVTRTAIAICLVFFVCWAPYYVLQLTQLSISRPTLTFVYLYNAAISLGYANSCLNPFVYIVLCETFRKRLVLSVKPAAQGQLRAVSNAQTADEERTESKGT
T1 sequence (Q9Y5N1 whole entry, canonical isoform): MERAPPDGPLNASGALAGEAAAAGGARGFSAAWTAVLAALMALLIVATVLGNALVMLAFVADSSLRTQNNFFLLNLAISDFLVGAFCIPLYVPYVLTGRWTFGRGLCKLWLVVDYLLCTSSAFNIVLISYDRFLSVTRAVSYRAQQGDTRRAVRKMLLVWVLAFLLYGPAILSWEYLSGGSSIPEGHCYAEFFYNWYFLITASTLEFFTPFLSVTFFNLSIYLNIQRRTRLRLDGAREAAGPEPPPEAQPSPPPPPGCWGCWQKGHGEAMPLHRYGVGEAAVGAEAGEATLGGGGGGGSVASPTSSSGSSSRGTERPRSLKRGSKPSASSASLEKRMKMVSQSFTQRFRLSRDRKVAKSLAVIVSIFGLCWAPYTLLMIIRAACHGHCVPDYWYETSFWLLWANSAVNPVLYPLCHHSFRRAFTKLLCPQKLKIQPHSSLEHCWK

With `O=C(c1nnc(-c2ccccc2)o1)N1CC(Oc2ccc(CN3CC4(COC4)C3)cc2)C1` [Example 3, (3-(4-(2-Oxa-6-azaspiro[3.3]heptan-6-ylmethyl)phenoxy)azetidin-1-yl)(5-phenyl-1,3,4-oxadiazol-2-yl)methanone], the IC50 in assay [1] turned out to be 0.8 µM. `O=C(c1nnc(-c2ccccc2)o1)N1CC(Sc2ccc(CN3CC4(COC4)C3)cc2)C1` [Example 5, (3-(4-(2-Oxa-6-azaspiro[3.3]heptan-6-ylmethyl)phenylthio)azetidin-1-yl)(5-phenyl-1,3,4-oxadiazol-2-yl)methanone] had an IC50 in assay [2] of 0.017 µM. The compound `CC1(C)COC12CN(Cc1ccc(OC3CN(C(=O)c4nnc(-c5ccccc5)o4)C3)c(Cl)c1)C2` [Example 10, (3-(2-Chloro-4-((3,3-dimethyl-1-oxa-6-azaspiro[3.3]heptan-6-yl)methyl)phenoxy)azetidin-1-yl)(5-phenyl-1,3,4-oxadiazol-2-yl)methanone] showed an IC50 in assay [2] of 0.03 µM. With `O=C(c1nnc(-c2ccc(OC(F)F)cc2)o1)N1CC(Oc2ccc(CN3CC4(COC4)C3)cc2)C1` [Example 7, (3-(4-(2-Oxa-6-azaspiro[3.3]heptan-6-ylmethyl)phenoxy)azetidin-1-yl)(5-(4-(difluoromethoxy)phenyl)-1,3,4-oxadiazol-2-yl)methanone], in assay [2], the IC50 turned out to be 0.012 µM.

With `O=C(c1nnc(-c2ccccc2)o1)N1CC(Oc2ccc(CN3CC4(COC4)C3)c(Cl)c2)C1` [Example 1, (3-(4-(2-Oxa-6-azaspiro[3.3]heptan-6-ylmethyl)-3-chlorophenoxy)azetidin-1-yl)(5-phenyl-1,3,4-oxadiazol-2-yl)methanone], the IC50 in assay [1] was found to be 0.41 µM; in assay [2] it was 0.017 µM. Take `O=C(c1nnc(-c2ccc(F)cc2)o1)N1CC(Oc2ccc(CN3CC4(COC4)C3)cc2)C1` [Example 6, (3-(4-(2-Oxa-6-azaspiro[3.3]heptan-6-ylmethyl)phenoxy)azetidin-1-yl)(5-(4-fluorophenyl)-1,3,4-oxadiazol-2-yl)methanone]: the IC50 in assay [2] is 0.024 µM.

Regarding `COc1ccc(-c2nnc(C(=O)N3CC(Oc4ccc(CN5CC6(C5)OCC6(C)C)cc4)C3)o2)cc1` [Example 9, (3-(4-((3,3-Dimethyl-1-oxa-6-azaspiro[3.3]heptan-6-yl)methyl)phenoxy)azetidin-1-yl)(5-(4-methoxyphenyl)-1,3,4-oxadiazol-2-yl)methanone], the IC50 in assay [2] turned out to be 0.027 µM.

Take `O=C(c1nnc(-c2ccc(Cl)cc2)o1)N1CC(Oc2ccc(CN3CC4(COC4)C3)cc2)C1` [Example 2, (3-(4-(2-Oxa-6-azaspiro[3.3]heptan-6-ylmethyl)phenoxy)azetidin-1-yl)(5-(4-chlorophenyl)-1,3,4-oxadiazol-2-yl)methanone]: the IC50 was found to be 0.62 µM in assay [1] and 0.01 µM in assay [2]. For the compound `O=C(c1nnc(-c2ccccc2)o1)N1CC(Oc2ccc(CN3CC4(COC4)C3)cc2Cl)C1` [Example 8, (3-(4-(2-Oxa-6-azaspiro[3.3]heptan-6-ylmethyl)-2-chlorophenoxy)azetidin-1-yl)(5-phenyl-1,3,4-oxadiazol-2-yl)methanone], in assay [2], the IC50 turned out to be 0.024 µM.
